Laboratory results: patent publication US20250295639A1, “METHODS FOR TREATING HEART DISEASES” (Cytokinetics, Incorporated, priority 2024, published 2025)

How the values were obtained:
[1] = tested on: patients with symptomatic oHCM; set-up: species or system human; conditions: in vivo
Description: Patients enrolled in this trial were required to have an LVEF≥60% prior to randomization, as confirmed by the central echocardiography laboratory. […] Dose escalation was performed on an individualized basis only if the following criteria were met: both post-Valsalva LVOT-G≥30 mmHg and biplane LVEF≥55%. Importantly, in contrast to CY 6021, the lower limit of LVEF for dose escalations was increased from 50% to 55% to provide a safety margin from the threshold of LVEF (<50%) that would trigger dose reduction. If the LVEF was <50% at any time, the dose of aficamten was down-titrated, and if the LVEF is <40% at any time, aficamten was temporarily interrupted.
To evaluate the safety and tolerability profile of aficamten in patients with symptomatic oHCM, the following were recorded: (1) incidence of reported major adverse cardiac events (cardiovascular [CV] death, cardiac arrest, non-fatal stroke, non-fatal myocardial infarction, CV hospitalization); (2) incidence of new onset persistent atrial fibrillation; (3) incidence of appropriate implantable cardiac defibrillator (ICD) discharges and aborted sudden cardiac death; (4) incidence of left ventricular ejection fraction (LVEF)<50%; and (5) incidence of treatment emergent adverse events.

[2] = tested on: patients with obstructive hypertrophic cardiomyopathy (oHCM); test: FOREST-HCM: standard of care (SoC) medications withdrawal in oHCM patients treated with aficamten; assay type: in vivo, human
From the text: Safety and Outcomes of Standard of Care Medications Withdrawal in Patients with Obstructive Hypertrophic Cardiomyopathy (oHCM) Treated with Aficamten in FOREST-HCM Trial. Standard of care (SoC) medications for the treatment of obstructive hypertrophic cardiomyopathy (oHCM) are currently recommended as first-line therapy. There are, however, off-target side-effects that often render them poorly tolerated. Patients were classified as receiving SoC therapy (both first line and second line) if treated with at least one drug (beta-blocker [BB], non-dihydropyridine calcium channel blocker [CCB], and/or disopyramide). Patients were eligible for protocol-guided SoC withdrawal after receiving a stable dose of aficamten for ≥4-weeks and after Week 12 of the study, at the discretion of the site investigator. Successful SoC withdrawal was defined as at least a 50% dose-reduction in one medication relative to baseline. All patients were also required to have ≥1 clinical, echocardiographic and biomarker assessment after attempted withdrawal. Adverse events (AE) were prospectively evaluated 1-2 weeks after any SoC withdrawal. […] Independent of attempted withdrawal, patients maintained relief of obstruction, improvement in symptoms and health status, and low cardiac biomarkers (Table 1). In the group with successful SoC withdrawal, no clinically significant differences were observed between pre and post SoC withdrawal attempt (Table 1). Overall, there was a modest reduction in left ventricular ejection fraction (LVEF) of −3.5%±6.0 from baseline, also with no differences between groups.

[3] = tested on: patients with symptomatic oHCM; test: SEQUOIA-HCM substudy: post-exercise oxygen uptake recovery (VO2Rec); assay type: in vivo, human
Description: Patients were randomized 1:1 to aficamten or placebo for 24 weeks with a primary endpoint of pVO2. For this analysis, VO2Rec delay was measured as the time taken after exercise cessation for VO2 to decline by >0%, 12.5% (t12.5%), 25%, or 50% of pVO2. Change in t12.5% from baseline (BL) to week 24 (W24) was the primary endpoint. […]

[4] = No SoC Withdrawal Group, Post (Week 24)
[5] = No SoC Withdrawal Group, Pre (Week 12)
[6] = No SoC Withdrawal Group, Week 24 vs Week 12
[7] = Successful SoC Withdrawal Group, Post SoC withdrawal
[8] = Successful SoC Withdrawal Group, Pre SoC withdrawal
[9] = Successful SoC Withdrawal Group, post vs pre
[10] = of the 68 who underwent withdrawal attempt
[11] = successful SoC withdrawal cohort vs no SoC withdrawal
[12] = LSM treatment difference vs placebo
[13] = change from baseline to week 24

CCc1nc(-c2ccc3c(c2)CC[C@H]3NC(=O)c2cnn(C)c2)no1 [aficamten, (R)—N-(5-(5-ethyl-1,2,4-oxadiazol-3-yl)-2,3-dihydro-1H-inden-1-yl)-1-methyl-1H-pyrazole-4-carboxamide]
instances of per protocol down-titration [1]: no instances | KCCQ CSS, Mean (SD) [2, 4]: 88.5 (12.55) | LVEF, Mean (SD) [2, 4]: 64.4 (5.3) % | LVOT-G, Rest, Mean (SD) [2, 4]: 14.0 (12.6) mmHg | LVOT-G, Valsalva, Mean (SD) [2, 4]: 32.2 (25.2) mmHg | NT-proBNP, median [2, 4]: 158.5 pg/mL | NYHA class I [2, 4]: I: 35 (54.7%) n(%) | NYHA class III [2, 4]: III: 2 (3.1%) n(%) | NYHA class IV [2, 4]: IV: 0 n(%) | hs-cardiac-TnI, median [2, 4]: 6.3 ng/L | KCCQ CSS, Mean (SD) [2, 5]: 87.3 (13.12) | LVEF, Mean (SD) [2, 5]: 65.3 (4.9) % | LVOT-G, Rest, Mean (SD) [2, 5]: 19.5 (17.6) mmHg | LVOT-G, Valsalva, Mean (SD) [2, 5]: 42.2 (26.0) mmHg | NT-proBNP, median [2, 5]: 191.5 pg/mL | NYHA class I [2, 5]: I: 34 (53.19%) n(%) | NYHA class III [2, 5]: III: 3 (4,7%) n(%) | NYHA class IV [2, 5]: IV: 0 n(%) | hs-cardiac-TnI, median [2, 5]: 7.6 ng/L | KCCQ CSS, change [2, 6]: 1.2 | LVEF, change [2, 6]: −0.9% | LVOT-G, Rest, change [2, 6]: −5.5 mmHg | LVOT-G, Valsalva, change [2, 6]: −10.0 mmHg | NT-proBNP, change [2, 6]: -3.0 pg/mL | hs-cardiac-TnI, change [2, 6]: -0.5 ng/L | KCCQ CSS, Mean (SD) [2, 7]: 83.8 (18.18) | LVOT-G, Rest, Mean (SD) [2, 7]: 16.6 (13.7) mmHg | LVOT-G, Valsalva, Mean (SD) [2, 7]: 35.6 (29.1) mmHg | NT-proBNP, median [2, 7]: 250.0 pg/mL | NYHA class I [2, 7]: I: 26 (46.4%) n(%) | NYHA class II [2, 7]: II: 26 (46,4%) n(%) | NYHA class III [2, 7]: III: 4 (7.1%) n(%) | NYHA class IV [2, 7]: IV: 0 n(%) | hs-cardiac-TaI, median [2, 7]: 5.8 ng/L | LVEF, Mean (SD) ([2]; Successful SoC Withdrawal Group, Post SoC withdrawal, site read echo): 65.5 (6.4) % | KCCQ CSS, Mean (SD) [2, 8]: 80.2 (17.20) | LVOT-G, Rest, Mean (SD) [2, 8]: 13.2 (11.0) mmHg | LVOT-G, Valsalva, Mean (SD) [2, 8]: 27.9 (22.4) mmHg | NT-proBNP, median [2, 8]: 330.0 pg/mL | NYHA class I [2, 8]: I: 23 (41.1%) n(%) | NYHA class II [2, 8]: II: 25(44.6%) n(%) | NYHA class III [2, 8]: III: 8(14.3%) n(%) | NYHA class IV [2, 8]: IV: 0 n(%) | hs-cardiac-TaI, median [2, 8]: 5.8 ng/L | LVEF, Mean (SD) ([2]; Successful SoC Withdrawal Group, Pre SoC withdrawal, site read echo): 64.8 (5.8) % | KCCQ CSS, change (95% CI) [2, 9]: 3.5 (−0.5, 7.5) | LVEF, change [2, 9]: 0.6% | LVOT-G, Rest, change [2, 9]: 3.4 mmHg | LVOT-G, Valsalva, change (95% CI) [2, 9]: 7.7 (0.8, 14.6), mmHg | NT-proBNP, change [2, 9]: -68.0 pg/mL | hs-cardiac-TaI, change [2, 9]: 0.0 ng/L | monotherapy patients who later restarted a SoC medication ([2]; human, in vivo): 13.2% | serious AEs attributed to SoC withdrawal ([2]; human, in vivo): no serious AEs | patients achieving aficamten monotherapy [2, 10]: 44.1% | patients achieving successful SoC withdrawal (at least 50% dose-reduction in one medication) [2, 10]: 92.6% | patients completely discontinuing at least one SoC medication [2, 10]: 61.8% | reduction in LVEF from baseline (mean±SD) ([2]; overall): −3.5% | KCCQ CSS, Δ change between cohorts at Week 24 [2, 11]: 2.3 | LVEF, Δ change between cohorts at Week 24 [2, 11]: 1.5% | LVOT-G, Rest, Δ change between cohorts at Week 24 [2, 11]: 8.9 mmHg | LVOT-G, Valsalva, Δ change between cohorts at Week 24 [2, 11]: 17.7 mmHg | NT-proBNP, Δ change between cohorts at Week 24 [2, 11]: -65.0 pg/mL | hs-cardiac-TnI, Δ change between cohorts at Week 24 [2, 11]: 0.5 ng/L | Peak VO2 ([3]; Baseline): 18.4 mL/min/kg | VO2 recovery 12.5% ([3]; Baseline): 45 s | VO2 recovery 25% ([3]; Baseline): 66 s | VO2 recovery 50% ([3]; Baseline): 115 s | VO2 recovery delay ([3]; Baseline): 19 s | Peak VO2, Adjusted Δ [3, 12]: 1.7 mL/min/kg | VO2 recovery 12.5%, Adjusted Δ [3, 12]: -8 s | VO2 recovery 25%, Adjusted Δ [3, 12]: -7 s | VO2 recovery 50%, Adjusted Δ [3, 12]: -8 s | VO2 recovery delay, Adjusted Δ [3, 12]: -4 s | Peak VO2 ([3]; Week 24): 20.2 mL/min/kg | VO2 recovery 12.5% ([3]; Week 24): 38 s | VO2 recovery 25% ([3]; Week 24): 60 s | VO2 recovery 50% ([3]; Week 24): 107 s | VO2 recovery delay ([3]; Week 24): 15 s | improvement in pVO2 ([3]; aficamten group, W24): 9% | improvement in t12.5% (VO2Rec delay) ([3]; aficamten group, W24): 18% | improving t12.5% by ≥15 seconds, NNT ([3]; aficamten vs placebo): 4.8 | improving t12.5% by ≥15 seconds, OR ([3]; aficamten vs placebo): 3.68 | Peak VO2, Absolute Δ [3, 13]: 1.8 mL/min/kg | VO2 recovery 12.5%, Absolute Δ [3, 13]: -7 s | VO2 recovery 25%, Absolute Δ [3, 13]: -6 s | VO2 recovery 50%, Absolute Δ [3, 13]: -8 s | VO2 recovery delay, Absolute Δ [3, 13]: -4 s
